In general, IC50 refers to the concentration needed to halve the response being measured. Broadly, the IC90 is the concentration at which the effect reaches the 90% level. For orientation: MBC means the smallest concentration meeting the test's criterion for killing. As a reminder, the MIC is the lowest concentration that inhibits growth of the organism. What is called MFC is the lowest tested concentration that kills the fungus rather than only halting it.

Data set [1] concerns Mycobacterium intracellulare. Kind of data set: Antibacterial activity against Mycobacterium intracellulare up to 20 ug/ml. The class given is functional, organism-based.
Data set [2] concerns Plasmodium falciparum. Kind of data set: Antimalarial activity against chloroquine-sensitive Plasmodium falciparum D6 by lactate dehydrogenase assay. The class given is functional, organism-based. The conditions noted are these: Plasmodium falciparum, D6; read-out: IC50.
A short description of data set [3]: Selectivity index, ratio of IC50 for African green monkey Vero cells to IC50 for chloroquine-sensitive Plasmodium falciparum D6. In kind it is toxicity, cell-based. The conditions noted are these: read-out: Ratio IC50.
The test system of data set [4] is Plasmodium falciparum. Briefly: Antimalarial activity against chloroquine-resistant Plasmodium falciparum W2 by lactate dehydrogenase assay. In kind it is functional, organism-based. The conditions noted are these: Plasmodium falciparum, W2; read-out: IC50.
Data set [5] is described as follows: Selectivity index, ratio of IC50 for African green monkey Vero cells to IC50 for chloroquine-resistant Plasmodium falciparum W2. The class given is toxicity, cell-based. The conditions noted are these: read-out: Ratio IC50.
The test system of data set [6] is Vero. Kind of data set: Cytotoxicity against African green monkey Vero cells by neutral red uptake assay. In kind it is cell-based. The conditions noted are these: Chlorocebus sabaeus.
In data set [7] the test system is SK-MEL. Kind of data set: Cytotoxicity against human SK-MEL cells by neutral red uptake assay. In kind it is cell-based.
Data set [8] has as its system KB. Briefly: Cytotoxicity against human KB cells by neutral red uptake assay. In kind it is cell-based.
In data set [9] the test system is BT-549. Briefly: Cytotoxicity against human BT549 cells by neutral red uptake assay. In kind it is cell-based.
The test system of data set [10] is SK-OV-3. Briefly: Cytotoxicity against human SKOV3 cells by neutral red uptake assay. In kind it is cell-based.
The test system of data set [11] is LLC-PK1. Briefly: Cytotoxicity against pig LLC-PK1 cells by neutral red uptake assay. The class given is cell-based. The conditions noted are these: Sus scrofa.
A short description of data set [12]: Inhibition of beta-hematin formation after 16 hrs. In kind it is physicochemical.
In data set [13] the test system is Leishmania donovani. Kind of data set: Antileishmanial activity against Leishmania donovani promastigotes by Alamar Blue assay. The class given is functional, organism-based.
Data set [14] has as its system Plasmodium berghei. Briefly: Antimalarial activity against Plasmodium berghei infected in mouse assessed as reduction in parasitemia at 100 mg/kg/day, po for 4 days measured up to day 14. In kind it is functional.
The subject of data set [15] is Staphylococcus aureus. Briefly: Antibacterial activity against Staphylococcus aureus. In kind it is functional, organism-based.
Data set [16] relates to Staphylococcus aureus. Briefly: Antibacterial activity against methicillin-resistant Staphylococcus aureus. The class given is functional, organism-based.
Data set [17] relates to Mycobacterium intracellulare. Briefly: Antibacterial activity against Mycobacterium intracellulare. In kind it is functional, organism-based.
In data set [18] the test system is Cryptococcus neoformans. Briefly: Antifungal activity against Cryptococcus neoformans by broth microdilution assay. The class given is functional, organism-based. A general note: Broth dilution looks for growth in wells or tubes with falling amounts of substance.
The subject of data set [19] is Pseudomonas aeruginosa. Briefly: Antibacterial activity against Pseudomonas aeruginosa. The class given is functional, organism-based.
Data set [20] deals with Escherichia coli. Kind of data set: Antibacterial activity against Escherichia coli. In kind it is functional, organism-based.
The subject of data set [21] is Candida albicans. Kind of data set: Antifungal activity against Candida albicans by broth microdilution assay. In kind it is functional, organism-based.
The test system of data set [22] is Nakaseomyces glabratus. Briefly: Antifungal activity against Candida glabrata by broth microdilution assay. In kind it is functional, organism-based.
In data set [23] the test system is Pichia kudriavzevii. Briefly: Antifungal activity against Candida krusei by broth microdilution assay. In kind it is functional, organism-based.
The test system of data set [24] is Aspergillus fumigatus. Kind of data set: Antifungal activity against Aspergillus fumigatus by broth microdilution assay. In kind it is functional, organism-based.

≈ marks a conversion by molar mass, not a printed value. Calls of active or inactive are those of the source. A value given as a limit tells only on which side of the number the result lay.

Consider `CCCCCOc1c(OC)cc(NC(C)CCCNC(C)CCCNC(C)CCCN)c2nccc(CC)c12.Cl` (configuration not stated), for which the outcome in data set [1], in data set [14], in data set [19], in data set [20], in [21] and in [22] was inactive. The result in [23] and in [24] was inactive. The IC50 in data set [2] is 0.57 µg/mL; in data set [4] it was 0.48 µg/mL; in [6], above 23.8 µg/mL; in data set [7], above 23.8 µg/mL; in data set [8], above 23.8 µg/mL; in data set [9], above 23.8 µg/mL. The IC50 in data set [10] is above 23.8 µg/mL; in data set [11], above 23.8 µg/mL; in data set [12], 20.8 µM; in [13], 3.5 µg/mL; in data set [15], 8.6 µg/mL; in [16], 9.5 µg/mL. For the same compound, the IC50 in data set [17] turned out to be 16.6 µg/mL; in data set [18], 5.5 µg/mL. In addition, the selectivity ratio was above 41.7 in [3] and above 49.5 in data set [5]. Moreover, the IC90 in data set [13] turned out to be 7 µg/mL. Besides, the MBC in data set [15] and in data set [16] was 20 µg/mL in each case. The MIC came out at 20 µg/mL in [15], 20 µg/mL in data set [16], 20 µg/mL in data set [17] and 10 µg/mL in [18]. Further, the MFC in data set [18] was determined as 10 µg/mL.
Consider `CCCCCOc1c(OC)cc(NC(C)CCCNC(C)CCCNC(C)CCCNC(C)CCCN)c2nccc(CC)c12.Cl` (configuration not stated), for which the outcome in [1], in data set [14], in data set [19], in [20], in [21] and in data set [22] was inactive. Also, the outcome in data set [23] and in data set [24] was inactive. Besides, the IC50 in [2] is 0.44 µg/mL; in [4] it was 0.42 µg/mL; in [6], above 23.8 µg/mL; in [7], above 23.8 µg/mL; in [8], above 23.8 µg/mL; in [9], above 23.8 µg/mL. The IC50 in data set [10] was above 23.8 µg/mL; in data set [11], above 23.8 µg/mL; in data set [12], 11.2 µM; in data set [13], 3.1 µg/mL; in [15], 9.8 µg/mL; in [16], 11 µg/mL. Besides, the IC50 is 17.8 µg/mL in data set [17] and 5.6 µg/mL in data set [18]. In addition, the selectivity ratio was above 54 in data set [3] and above 56.6 in data set [5]. Also, the 90% effect level in [13] (IC90) was put at 7 µg/mL. The MBC in data set [15] and in [16] was 20 µg/mL in each case. The MIC stood at 20 µg/mL in data set [15], 20 µg/mL in data set [16], 20 µg/mL in data set [17] and 10 µg/mL in data set [18]. In addition, the MFC in [18] was determined as 10 µg/mL.
`N=C(N)c1ccc(OCCCCCOc2ccc(C(=N)N)cc2)cc1` [PENTAMIDINE]: in [13], the IC90 stood at 3.8 µg/mL (≈ 11.2 µM).
In data set [13], `C[C@@H]1[C@H](O)[C@@H](C)/C=C/C=C/C=C/C=C/C=C/C=C/C=C/[C@H](O[C@@H]2O[C@H](C)[C@@H](O)[C@H](N)[C@@H]2O)C[C@@H]2O[C@](O)(C[C@@H](O)C[C@@H](O)[C@H](O)CC[C@@H](O)C[C@@H](O)CC(=O)O[C@H]1C)C[C@H](O)[C@H]2C(=O)O` [AMPHOTERICIN B] gave an IC90 of 0.35 µg/mL (≈ 0.379 µM). The MFC in data set [18] was determined as 1.5 µg/mL (≈ 1.62 µM); in data set [22], 0.625 µg/mL (≈ 0.676 µM). Besides, in [22], it took 0.31 µg/mL (≈ 0.335 µM) to inhibit growth (MIC).
Turning to `C[C@@H]1CC[C@H]2[C@@H](C)C(=O)O[C@@H]3O[C@@]4(C)CC[C@@H]1[C@]32OO4` [ARTEMISININ], the selectivity ratio in data set [3] is 1560; in data set [5] it was 2640.
With `CCN(CC)CCCC(C)Nc1ccnc2cc(Cl)ccc12` (configuration not stated) [CHLOROQUINE], the IC50 in data set [12] was determined as 80 µM.

Source of the values: ChEMBL document CHEMBL3217667, “Extended side chain analogues of 8-aminoquinolines: Synthesis and evaluation of antiprotozoal, antimicrobial, -hematin inhibition, and cytotoxic activities” (Medchemcomm, 2011).
